Experimental data taken from patent publication US20140128352A1, “COMPOUNDS AND METHODS FOR MODULATING MITOCHONDRIAL METABOLISM AND REACTIVE OXYGEN SPECIES PRODUCTION” (Buck Institute for Research on Aging, priority 2012, published 2014).
Read-outs that look alike come from different tables or passages of the source. Values belong to the compound of their own block, whether it stands above or below them.

How the values were obtained:
[1] = tested on: ubiquinone binding site of complex I (IQ); experiment: High-throughput screen: ROS production from ubiquinone binding site of complex I (IQ), isolated skeletal muscle mitochondria; type: biochemical, rat; conditions: percent change in ROS from DMSO controls
[2] = molecular target: T1, flavin binding site of complex I (IF) (Rattus norvegicus, UniProt Q5XIH3); experiment: High-throughput screen: ROS production from flavin binding site of complex I (IF); type: biochemical
T1 construct: freshly isolated muscle mitochondria were assayed; from tissue; host or cells: rat skeletal muscle mitochondria (Wistar, Harlan Laboratories)
Procedure: (§1) Skeletal muscle mitochondria were isolated from 5-8 week old female Wistar rats (Harlan Laboratories). Minced muscle was homogenized in buffer containing bacterial protease Type VIII prior to differential centrifugation to separate mitochondria from other tissue components. Unless otherwise stated, freshly isolated muscle mitochondria were assayed in buffer containing 120 mM KCl, 5 mM HEPES, 1 mM EGTA, 0.3% (w/v) bovine serum albumin. Where indicated, CaCl2 was added to yield a final free concentration of 250 nM calcium at pH 7.0 at 37° C.
Master screening plates were prepared using a Biomek FX liquid handling workstation (Beckman) to transfer 1 μL of each compound into individual wells on 96-well storage plates (80 compounds per plate). […] Just prior to use, plates were brought to room temperature and diluted 300-fold with standard buffer (13.3X=33.3 μM). To monitor the performance of each assay throughout screening and to provide intra-plate normalization reference points, DMSO negative controls and known mitochondrial inhibitor positive controls were included on each Master compound plate.
(§2) Total amounts of superoxide and H2O2 production were determined fluorometrically as H2O2, without distinguishing between them, in the presence of exogenous superoxide dismutase (25 units/mL final), horseradish peroxidase (1 unit/mL final), and Amplex UltraRed (25 μM final) as described (Affourtit, C. et al. (2012) Measurement of proton leak and electron leak in isolated mitochondria. Methods Mol. Biol. 810: 165-82). Just prior to use, a bulk 3.3X solution was made in standard buffer and distributed into a 2 mL deep well 96-well transfer plate.
To assess the effects of a compound on ROS production from the flavin binding site of complex I (IF), Start Solution containing 5 mM glutamate, 5 mM malate and 4 μM rotenone was distributed into standard 96-well transfer plates. A Biomek FX workstation was programmed to dispense solutions into black 96-well assay plates. Solutions were dispensed to all assay plates in the following order: ROS Detection solution described in Example 3, Mitochondria solution described in Example 1 to a final concentration of 0.3 mg/ml, and Compound dilutions described in Example 2. Duplicate assay plates were made and each was initiated by the addition of 3.3X Start solution containing 5 mM glutamate, 5 mM malate and 4 μM rotenone. Plates were incubated in the dark at room temperature for 30-40 minutes before acquiring endpoint fluorescence using a Victor 3V plate reader (Perkin Elmer) equipped with 550/590 nm excitation/emission filters.
The fluorescence values in each well were scaled as the percent change from the intra-plate DMSO controls with the appropriate inhibitor positive controls defined as −100%. Following initial scaling, intra-plate normalized values were subjected to Tukey's two-way median polish to remove row and column dependent positional effects (Malo, N. et al. (2006) Statistical practice in high-throughput screening data analysis. Nat. Biotechnol. 24(2): 167-75).

[3] = molecular target: T2, outer ubiquinone binding site of complex III (IIIQO) (Rattus norvegicus, UniProt P00159+P20788); experiment: High-throughput screen: ROS production from outer ubiquinone binding site of complex III (IIIQO); type: biochemical; conditions: percent change in ROS from DMSO controls; for IIIQO: Table 8
T2 construct: freshly isolated muscle mitochondria were assayed; from tissue; host or cells: rat skeletal muscle mitochondria (Wistar, Harlan Laboratories)

[4] = molecular target: T3, succinate dehydrogenase/complex II (SDH) (Rattus norvegicus, UniProt P21913+Q641Z9+Q6PCT8+Q920L2); experiment: High-throughput screen: ROS production from succinate dehydrogenase/complex II (SDH); type: biochemical; conditions: percent change in ROS from DMSO controls; for inhibition at 2.5 µM: Table 7
T3 construct: freshly isolated muscle mitochondria were assayed; from tissue; host or cells: rat skeletal muscle mitochondria (Wistar, Harlan Laboratories)

[5] = molecular target: T4, glycerol-3-phosphate dehydrogenase (GPDH) (Rattus norvegicus, UniProt P35571); experiment: High-throughput screen: ROS production from glycerol-3-phosphate dehydrogenase (GPDH); type: biochemical; design: inhibition: dose or concentration left out as unconfirmed; conditions: percent change in ROS from DMSO controls; for inhibition: Table 7
T4 construct: The activity of GPDH in intact mitochondria (0.3 mg/mL) was measured; from tissue; host or cells: rat skeletal muscle mitochondria (Wistar, Harlan Laboratories)
T4 sequence (P35571 43-727): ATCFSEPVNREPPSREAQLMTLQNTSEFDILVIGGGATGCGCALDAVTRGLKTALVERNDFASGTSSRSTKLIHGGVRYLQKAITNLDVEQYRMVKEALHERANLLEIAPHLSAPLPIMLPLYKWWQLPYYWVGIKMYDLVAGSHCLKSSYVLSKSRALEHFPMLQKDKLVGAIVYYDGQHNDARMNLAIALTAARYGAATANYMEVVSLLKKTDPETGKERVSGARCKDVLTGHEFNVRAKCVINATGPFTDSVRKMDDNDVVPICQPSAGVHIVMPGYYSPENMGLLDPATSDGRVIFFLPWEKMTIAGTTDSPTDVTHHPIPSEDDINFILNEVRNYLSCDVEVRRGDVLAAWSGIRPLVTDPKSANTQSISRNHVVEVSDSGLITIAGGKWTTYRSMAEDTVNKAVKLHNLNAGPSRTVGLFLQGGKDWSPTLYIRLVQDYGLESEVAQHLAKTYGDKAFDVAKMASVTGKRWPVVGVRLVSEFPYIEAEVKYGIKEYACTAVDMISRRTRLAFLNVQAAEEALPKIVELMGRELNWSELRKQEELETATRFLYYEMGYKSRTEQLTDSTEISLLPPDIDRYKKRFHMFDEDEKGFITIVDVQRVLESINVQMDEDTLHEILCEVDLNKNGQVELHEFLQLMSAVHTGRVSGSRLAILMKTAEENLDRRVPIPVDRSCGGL
Procedure: as §1
Compounds (10 mM in DMSO) were randomly selected from a library of 24,000 compounds obtained from ChemBridge and curated by the lab of Robert Hughes at the Buck Institute. Master screening plates were prepared using a Biomek FX liquid handling workstation (Beckman) to transfer 1 μL of each compound into individual wells on 96-well storage plates (80 compounds per plate). Master plates were sealed with foil and stored at −80° C. Just prior to use, plates were brought to room temperature and diluted 300-fold with standard buffer (13.3X=33.3 μM). To monitor the performance of each assay throughout screening and to provide intra-plate normalization reference points, DMSO negative controls and known mitochondrial inhibitor positive controls were included on each Master compound plate.
as §2
To assess the effects of a compound on ROS production from glycerol-3-phosphate dehydrogenase (GPDH), Start Solution containing 25 mM glycerol phosphate, 4 μM rotenone, 2.5 μM antimycin A, 1 mM malonate, 2 μM myxothiazol was distributed into standard 96-well transfer plates. A Biomek FX workstation was programmed to dispense solutions into black 96-well assay plates. Solutions were dispensed to all assay plates in the following order: ROS Detection solution described in Example 3, Mitochondria solution described in Example 1 to a final concentration of 0.2 mg/ml, and Compound dilutions described in Example 2. Duplicate assay plates were made and each was initiated by the addition of 3.3X Start solution containing 25 mM glycerol phosphate, 4 μM rotenone, 2.5 μM antimycin A, 1 mM malonate, 2 μM myxothiazol. Plates were incubated in the dark at room temperature for 30-40 minutes before acquiring endpoint fluorescence using a Victor 3V plate reader (Perkin Elmer) equipped with 550/590 nm excitation/emission filters.
The fluorescence values in each well were scaled as the percent change from the intra-plate DMSO controls. […] Following initial scaling, intra-plate normalized values were subjected to Tukey's two-way median polish to remove row and column dependent positional effects (Malo et al., 2006).

[6] = tested on: mitochondrial membrane potential (ΔΨm); experiment: Membrane potential (ΔΨm) counterscreen with TMRM; conditions: malate, nigericin
[7] = Table 3, 5 mM glutamate, 5 mM malate, 4 μM rotenone, compounds 2.5 μM, percent change from DMSO, positive control −100%, read-out: % Reduction in ROS production (IF)
[8] = Table 7, percent change in ROS from DMSO controls, read-out: IF
[9] = Table 8, percent change in ROS from DMSO controls
[10] = Table 9, percent change in ROS from DMSO controls

T1 sequence (Q5XIH3 21-464 limits assumed, one chain of several): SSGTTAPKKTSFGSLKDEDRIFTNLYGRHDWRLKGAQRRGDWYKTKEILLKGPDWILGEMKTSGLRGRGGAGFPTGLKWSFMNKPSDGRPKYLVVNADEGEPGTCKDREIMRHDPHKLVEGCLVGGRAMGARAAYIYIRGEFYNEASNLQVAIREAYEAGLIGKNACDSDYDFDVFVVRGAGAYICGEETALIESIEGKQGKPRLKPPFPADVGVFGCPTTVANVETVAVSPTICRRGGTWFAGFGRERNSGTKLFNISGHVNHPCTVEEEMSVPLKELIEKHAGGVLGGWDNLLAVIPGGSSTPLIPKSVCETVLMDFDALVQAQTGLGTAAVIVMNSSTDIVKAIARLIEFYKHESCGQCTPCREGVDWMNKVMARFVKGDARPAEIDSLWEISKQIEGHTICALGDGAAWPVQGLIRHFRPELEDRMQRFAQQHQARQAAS
T3 sequence (Q920L2 35-656): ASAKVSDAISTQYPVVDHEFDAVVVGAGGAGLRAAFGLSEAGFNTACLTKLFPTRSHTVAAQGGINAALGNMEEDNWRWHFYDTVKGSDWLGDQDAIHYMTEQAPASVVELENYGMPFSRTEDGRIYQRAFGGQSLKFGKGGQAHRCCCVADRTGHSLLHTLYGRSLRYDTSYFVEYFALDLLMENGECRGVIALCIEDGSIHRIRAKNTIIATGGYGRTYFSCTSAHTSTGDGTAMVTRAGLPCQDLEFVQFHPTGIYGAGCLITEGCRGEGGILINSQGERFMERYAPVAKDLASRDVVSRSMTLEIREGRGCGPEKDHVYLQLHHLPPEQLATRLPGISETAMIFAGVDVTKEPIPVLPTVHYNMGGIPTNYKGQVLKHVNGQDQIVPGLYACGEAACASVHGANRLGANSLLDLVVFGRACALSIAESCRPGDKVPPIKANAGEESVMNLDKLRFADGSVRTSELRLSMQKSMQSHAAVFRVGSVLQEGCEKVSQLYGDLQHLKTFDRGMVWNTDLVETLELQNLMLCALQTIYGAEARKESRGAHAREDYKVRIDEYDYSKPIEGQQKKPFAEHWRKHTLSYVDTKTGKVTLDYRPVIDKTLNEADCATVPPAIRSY
T3 sequence (P21913 31-282): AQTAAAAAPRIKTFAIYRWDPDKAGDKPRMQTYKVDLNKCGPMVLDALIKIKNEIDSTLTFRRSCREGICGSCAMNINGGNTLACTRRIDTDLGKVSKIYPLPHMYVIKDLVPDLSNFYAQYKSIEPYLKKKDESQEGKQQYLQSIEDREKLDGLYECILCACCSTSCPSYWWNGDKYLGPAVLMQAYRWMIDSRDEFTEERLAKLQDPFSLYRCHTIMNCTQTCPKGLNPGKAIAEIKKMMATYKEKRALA
T3 sequence (Q641Z9 30-169 limits assumed): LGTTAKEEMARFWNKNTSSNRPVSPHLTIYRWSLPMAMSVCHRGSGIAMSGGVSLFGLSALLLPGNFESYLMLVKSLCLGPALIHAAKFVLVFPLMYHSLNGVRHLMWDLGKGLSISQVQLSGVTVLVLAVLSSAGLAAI
T3 sequence (Q6PCT8 57-159): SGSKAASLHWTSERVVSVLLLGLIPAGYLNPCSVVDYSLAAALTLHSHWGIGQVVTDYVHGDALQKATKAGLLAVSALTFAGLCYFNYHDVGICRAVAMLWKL

SMILES: O=C(Nc1ccccc1F)[C@@H]1C2C=CC(C2)[C@@H]1C(=O)O (stereo partly drawn) [Compound 20]
- IQ ([1]; Table 7): 0.2
- IQ ([1]; Table 8): 0.2
- IQ ([1]; Table 9): 0.2
- inhibition at 2.5 µM [2, 7]: 24%
- inhibition at 2.5 µM [2, 8]: 24%
- IF [2, 9]: −24.0
- IF [2, 10]: −24.0
- inhibition at 2.5 µM ([3]; Table 7, read-out: IIIQO): -1.2%
- IIIQO [3]: 1.2
- inhibition at 2.5 µM ([3]; Table 9, read-out: IIIQo): -1.2%
- inhibition at 2.5 µM [4]: 0.7%
- SDH ([4]; Table 8): −0.7
- SDH ([4]; Table 9): −0.7
- inhibition [5]: 1.7%
- GPDH ([5]; Table 8): −1.7
- GPDH ([5]; Table 9): −1.7
- ΔΨm ([6]; Table 8, glutamate): −0.3
- ΔΨm ([6]; Table 9, glutamate): −0.3

SMILES: Cc1ccc(C(C)C)c(OCC(O)CN2CCN(Cc3ccccc3)CC2)c1.Cl.Cl (stereo not drawn) [Compound 21]
- IQ ([1]; Table 7): 0.0
- IQ ([1]; Table 8): 0.0
- IQ ([1]; Table 9): 0.0
- inhibition at 2.5 µM [2, 7]: 23%
- inhibition at 2.5 µM [2, 8]: 23%
- IF [2, 9]: −23.0
- IF [2, 10]: −23.0
- inhibition at 2.5 µM ([3]; Table 7, read-out: IIIQO): 9.9%
- IIIQO [3]: −9.9
- inhibition at 2.5 µM ([3]; Table 9, read-out: IIIQo): 9.9%
- inhibition at 2.5 µM [4]: -1.7%
- SDH ([4]; Table 8): 1.7
- SDH ([4]; Table 9): 1.7
- inhibition [5]: 1.8%
- GPDH ([5]; Table 8): −1.8
- GPDH ([5]; Table 9): −1.8
- ΔΨm ([6]; Table 8, glutamate): −0.3
- ΔΨm ([6]; Table 9, glutamate): −0.3

SMILES: CCN1CCN(C2CCC(C(C)(C)C)CC2)CC1 (stereo not drawn) [Compound 22]
- IQ ([1]; Table 7): −0.4
- IQ ([1]; Table 8): −0.4
- IQ ([1]; Table 9): −0.4
- inhibition at 2.5 µM [2, 7]: 22.1%
- inhibition at 2.5 µM [2, 8]: 22.1%
- IF [2, 9]: −22.1
- IF [2, 10]: −22.1
- inhibition at 2.5 µM ([3]; Table 7, read-out: IIIQO): 6.2%
- IIIQO [3]: −6.2
- inhibition at 2.5 µM ([3]; Table 9, read-out: IIIQo): 6.2%
- inhibition at 2.5 µM [4]: -5.5%
- SDH ([4]; Table 8): 5.5
- SDH ([4]; Table 9): 5.5
- inhibition [5]: 2.6%
- GPDH ([5]; Table 8): −2.6
- GPDH ([5]; Table 9): −2.6
- ΔΨm ([6]; Table 8, glutamate): −0.9
- ΔΨm ([6]; Table 9, glutamate): −0.9

SMILES: CN(C)CCN(Cc1ccccc1)Cc1ccccc1Br [Compound 23]
- IQ ([1]; Table 7): −2.7
- IQ ([1]; Table 8): −2.7
- IQ ([1]; Table 9): −2.7
- inhibition at 2.5 µM [2, 7]: 21.1%
- inhibition at 2.5 µM [2, 8]: 21.1%
- IF [2, 9]: −21.1
- IF [2, 10]: −21.1
- inhibition at 2.5 µM ([3]; Table 7, read-out: IIIQO): 8.8%
- IIIQO [3]: −8.8
- inhibition at 2.5 µM ([3]; Table 9, read-out: IIIQo): 8.8%
- inhibition at 2.5 µM [4]: -1.7%
- SDH ([4]; Table 8): 1.7
- SDH ([4]; Table 9): 1.7
- inhibition [5]: 1%
- GPDH ([5]; Table 8): −1.0
- GPDH ([5]; Table 9): −1.0
- ΔΨm ([6]; Table 8, glutamate): −1.5
- ΔΨm ([6]; Table 9, glutamate): −1.5

The next lines start with results.

- inhibition at 2.5 µM ([3]; Table 7, read-out: IIIQO): 1.3%
- IIIQO [3]: −1.3
- inhibition at 2.5 µM ([3]; Table 9, read-out: IIIQo): 1.3%
- inhibition at 2.5 µM [4]: 1.5%
- SDH ([4]; Table 8): −1.5
- SDH ([4]; Table 9): −1.5
- inhibition [5]: 2%
- GPDH ([5]; Table 8): −2.0
- GPDH ([5]; Table 9): −2.0
SMILES: O=C(COc1ccc(Cl)cc1Cl)Nc1ccc(F)cc1F [Compound 24]
- IQ ([1]; Table 7): −1.0
- IQ ([1]; Table 8): −1.0
- IQ ([1]; Table 9): −1.0
- inhibition at 2.5 µM [2, 7]: 19.8%
- inhibition at 2.5 µM [2, 8]: 19.8%
- IF [2, 9]: −19.8
- IF [2, 10]: −19.8
- ΔΨm ([6]; Table 8, glutamate): 0.1
- ΔΨm ([6]; Table 9, glutamate): 0.1

- inhibition at 2.5 µM ([3]; Table 7, read-out: IIIQO): 3.3%
- IIIQO [3]: −3.3
- inhibition at 2.5 µM ([3]; Table 9, read-out: IIIQo): 3.3%
- inhibition at 2.5 µM [4]: 0.1%
- SDH ([4]; Table 8): −0.1
- SDH ([4]; Table 9): −0.1
- inhibition [5]: 2.5%
- GPDH ([5]; Table 8): −2.5
- GPDH ([5]; Table 9): −2.5
SMILES: CCN(CC)CCN(CC)Cc1ccc(Cl)cc1Cl [Compound 25]
- IQ ([1]; Table 7): −0.6
- IQ ([1]; Table 8): −0.6
- IQ ([1]; Table 9): −0.6
- inhibition at 2.5 µM [2, 7]: 19.7%
- inhibition at 2.5 µM [2, 8]: 19.7%
- IF [2, 9]: −19.7
- IF [2, 10]: −19.7
- ΔΨm ([6]; Table 8, glutamate): −0.4
- ΔΨm ([6]; Table 9, glutamate): −0.4
